pIC50: −log10 of the molar value. Where two headings read alike, the source gives them in different places.
Experiments:
[1] = target: T1, human calpain-1 (purified from erythrocytes, ecalpain-1) (Homo sapiens, UniProt P07384); assay: Inhibition of human calpain-1 purified from erythrocytes; assay type: biochemical
T1 construct: human calpain-1 (purified from erythrocytes, ecalpain-1); from tissue; host or cells: human erythrocytes
T1 sequence (P07384 1-714): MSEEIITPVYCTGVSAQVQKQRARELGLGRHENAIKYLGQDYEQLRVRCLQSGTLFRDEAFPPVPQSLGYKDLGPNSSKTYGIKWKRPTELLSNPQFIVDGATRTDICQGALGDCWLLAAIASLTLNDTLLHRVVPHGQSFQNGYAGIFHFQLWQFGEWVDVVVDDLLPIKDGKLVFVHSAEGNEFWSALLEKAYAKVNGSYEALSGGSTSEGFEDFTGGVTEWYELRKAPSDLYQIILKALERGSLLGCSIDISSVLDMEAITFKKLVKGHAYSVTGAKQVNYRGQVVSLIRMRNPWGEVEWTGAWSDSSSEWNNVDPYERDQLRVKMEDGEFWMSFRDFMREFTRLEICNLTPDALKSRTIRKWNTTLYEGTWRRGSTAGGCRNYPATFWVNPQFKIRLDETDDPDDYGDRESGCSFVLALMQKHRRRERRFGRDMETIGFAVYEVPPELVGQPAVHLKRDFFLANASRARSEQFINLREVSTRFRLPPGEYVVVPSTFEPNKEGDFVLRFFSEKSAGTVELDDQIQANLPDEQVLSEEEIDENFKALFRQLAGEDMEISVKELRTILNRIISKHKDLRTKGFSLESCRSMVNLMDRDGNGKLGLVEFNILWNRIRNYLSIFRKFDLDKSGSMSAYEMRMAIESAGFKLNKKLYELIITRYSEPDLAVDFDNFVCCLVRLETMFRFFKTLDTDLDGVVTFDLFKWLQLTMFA
T1 sequence (P04632 1-268 partner): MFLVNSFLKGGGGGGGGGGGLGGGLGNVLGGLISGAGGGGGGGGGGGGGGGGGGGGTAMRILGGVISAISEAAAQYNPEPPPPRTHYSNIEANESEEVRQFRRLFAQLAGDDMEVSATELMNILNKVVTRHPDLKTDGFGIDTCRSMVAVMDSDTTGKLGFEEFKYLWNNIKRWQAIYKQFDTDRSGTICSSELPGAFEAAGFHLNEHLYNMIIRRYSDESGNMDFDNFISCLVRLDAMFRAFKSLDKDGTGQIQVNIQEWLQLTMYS
Description: Various concentrations of NA112 in the liposomal formulation were incubated with human calpain-1 (purified from erythrocytes, ecalpain-1) or a recombinant human calpain-2 (hcalpain-2) and calpain activity assayed as in FIG. 1. IC50 were determined and transformed into Ki values (FIG. 10A, 10B). Values previously obtained with NA112 dissolved in DMSO are shown for comparison (FIG. 10B).
Cerebellar homogenates from wild-type (WT) or calpain-1 Knock-out (KO) mice were incubated with 20 μM calcium to activate calpain-1 or with 2 mM calcium to activate calpain-2, respectively, and increasing concentrations of NA184.
Like in NA112, there are 2 chiral centers in NA184. The inhibitory activity of the compounds NA184A (S-S isomer) and NA184B (S-R stereoisomer) against erythrocyte human calpain-1 (ecalpain-1) and recombinant human calpain-2 (hcalpain-2) were determined.

[2] = PK in mice after iv injection of liposomal NA112: plasma; assay type: in vivo; details: for concentration at 0.0167 hr / concentration at 0.0833 hr / concentration at 0.25 hr / concentration at 0.5 hr / concentration at 1 hr / concentration at 2 hr / concentration at 4 hr / concentration at 8 hr / concentration at 16 hr / concentration at 24 hr: iv, 10 mg/kg, mice iv 10 mg/kg liposomes
Description: NA112 was prepared in liposomes at a concentration of 1.5 mg/ml. Mice were injected in the tail vein with 200 μl of NA112 in liposomes (corresponding to a dose of 10 mg/kg) and were sacrificed at the following time-points: 1, 5, 15, 30 min, 1, 2, 4, 8, 16 and 24 h. Blood was collected and plasma rapidly prepared by centrifugation. Brains were also collected. NA112 in plasma and in brain homogenates was assayed with LC/Ms and the sensitivity of the assay was 1 ng/ml. Experiments were performed in duplicate (A1 and A2 in Table 3). Results were averaged for preparing the figure and calculating the half-life of NA112 in plasma and in brain.
A two-compartment model was used to analyze the data from FIG. 14. This assumes that there is a rapid distribution of the drug from the plasma to various organs, followed by a slower elimination of the drug form the plasma. […] In FIG. 16, changes in NA112 plasma concentrations fitted with the 2-compartment model. The data from FIG. 14 are fitted with the 2-compartment model equation, showing the very good fit between the predicted values and the observed values.

[3] = 2-compartmental model, mice iv 10 mg/kg in liposomes
[4] = mouse, read-out: Plasma concentration A1
[5] = mouse, read-out: Plasma concentration A2
[6] = mouse, read-out: Plasma concentration Mean

CCC(NC(=O)[C@H](CC(C)C)NC(=O)NCc1ccccc1)C(=O)C(=O)NCc1cccc(Cl)c1OC (stereo partly drawn) [NA184, (2S)-2-(3-benzylureido)-N-(1-((3-chloro-2-methoxybenzyl)amino)-1,2-dioxopentan-3-yl)-4-methylpentanamide]
pIC50 [1]: 6.27

CCC(NC(=O)[C@H](CC(C)C)NC(=O)NCc1ccccc1)C(=O)C(=O)NCc1cc(OC)cc(OC)c1 (mixture of isomers) [NA112, (2S)-2-(3-benzylureido)-N-(1-((3,5-dimethoxybenzyl)amino)-1,2-dioxopentan-3-yl)-4-methylpentanamide]
A [2, 3]: 28944.68 ng/mL | B [2, 3]: 42.70 ng/mL | T½α [2, 3]: 0.23 h | T½β [2, 3]: 7.80 h | α [2, 3]: 3.01 h⁻¹ | β [2, 3]: 0.09 h⁻¹ | half-life ([2]; mouse, 2-compartment model, mice iv 10 mg/kg in liposomes): 7.8 h | AUC from zero to infinity ([2]; mouse, 2-compartmental model, mice iv 10 mg/kg in liposomes, read-out: AUC0-00): 17000 ng·h/mL | concentration at 0.0167 hr [2, 4]: 45300 ng/mL | concentration at 0.0167 hr [2, 5]: 63500 ng/mL | concentration at 0.0167 hr [2, 6]: 54400 ng/mL | concentration at 0.0833 hr [2, 4]: 116000 ng/mL | concentration at 0.0833 hr [2, 5]: 69100 ng/mL | concentration at 0.0833 hr [2, 6]: 92300 ng/mL | concentration at 0.25 hr [2, 4]: 2120 ng/mL | concentration at 0.25 hr [2, 5]: 939 ng/mL | concentration at 0.25 hr [2, 6]: 1530 ng/mL | concentration at 0.5 hr [2, 4]: 6760 ng/mL | concentration at 0.5 hr [2, 5]: 432 ng/mL | concentration at 0.5 hr [2, 6]: 3590 ng/mL | concentration at 1 hr [2, 4]: 5550 ng/mL | concentration at 1 hr [2, 5]: 390 ng/mL | concentration at 1 hr [2, 6]: 2970 ng/mL | concentration at 2 hr [2, 4]: 107 ng/mL | concentration at 2 hr [2, 5]: 84 ng/mL | concentration at 2 hr [2, 6]: 95.5 ng/mL | concentration at 4 hr [2, 4]: 34.6 ng/mL | concentration at 4 hr [2, 5]: 30 ng/mL | concentration at 4 hr [2, 6]: 32.3 ng/mL | concentration at 8 hr [2, 4]: 17.4 ng/mL | concentration at 8 hr [2, 5]: 20.6 ng/mL | concentration at 8 hr [2, 6]: 19 ng/mL | concentration at 16 hr [2, 4]: 10.8 ng/mL | concentration at 16 hr [2, 5]: 9.79 ng/mL | concentration at 16 hr [2, 6]: 10.3 ng/mL | concentration at 24 hr [2, 4]: 5.63 ng/mL | concentration at 24 hr [2, 5]: 4.67 ng/mL | concentration at 24 hr [2, 6]: 5.15 ng/mL

Source: patent US12606520B2, “Calpain-2 inhibitor compounds and methods of treatment” (WESTERN UNIVERSITY OF HEALTH SCIENCES, priority 2020, dated 2026)
